Measurements as given in article PMC4967898, “Peptides interfering with protein-protein interactions in the ethylene signaling pathway delay tomato fruit ripening” (Scientific Reports, 2016).
“Also recorded” adds a separate entry of the source.

T1: tomato EIN2-ETR1 complex (Solanum lycopersicum, UniProt Q41342)
T1 construct: made in house; host or cells: E. coli BL21(DE3) with pRARE (LeEIN2 fragment); E. coli (LeETR1)
T1 sequence (Q41342 1-754): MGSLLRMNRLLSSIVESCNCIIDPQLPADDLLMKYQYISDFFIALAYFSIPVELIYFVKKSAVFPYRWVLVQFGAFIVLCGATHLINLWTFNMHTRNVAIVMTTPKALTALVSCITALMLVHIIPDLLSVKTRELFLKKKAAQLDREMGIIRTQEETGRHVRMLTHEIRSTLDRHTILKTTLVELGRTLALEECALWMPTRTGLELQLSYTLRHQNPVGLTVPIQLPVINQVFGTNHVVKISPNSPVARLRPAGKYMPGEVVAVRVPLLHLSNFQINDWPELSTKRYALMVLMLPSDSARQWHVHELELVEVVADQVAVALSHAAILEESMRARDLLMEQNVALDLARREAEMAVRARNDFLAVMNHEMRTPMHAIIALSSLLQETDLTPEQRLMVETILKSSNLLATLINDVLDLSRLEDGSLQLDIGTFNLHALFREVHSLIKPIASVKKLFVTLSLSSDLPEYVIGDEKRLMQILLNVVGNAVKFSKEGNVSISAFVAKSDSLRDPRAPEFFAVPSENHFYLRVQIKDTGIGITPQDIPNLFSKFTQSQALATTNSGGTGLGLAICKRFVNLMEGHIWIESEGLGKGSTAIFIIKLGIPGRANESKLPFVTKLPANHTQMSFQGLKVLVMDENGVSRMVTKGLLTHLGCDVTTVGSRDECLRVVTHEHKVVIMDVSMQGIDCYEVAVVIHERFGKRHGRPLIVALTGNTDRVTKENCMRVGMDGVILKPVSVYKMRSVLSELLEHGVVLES

T2: C-terminal part of tomato EIN2 (LeEIN2^462–1316) (tomato, UniProt Q6Q2C1 462-1316, unlabeled in the MST titration of labeled LeETR1; Alexa Fluor 488 label in the reverse MST titration; Alexa Fluor 568 succinimidyl-ester label in the FRET assay)
T2 construct: the N-terminal membrane domain (aa 1-461) was deleted from the full-length cDNA; The purified protein was detected with an anti-polyhistidine antibody; no tag removal is described; also called C-terminal domain of tomato EIN2; source: E. coli BL21(DE3) with pRARE, purified (HisTrap FF, PD-10 desalting)
T2 sequence (looked up): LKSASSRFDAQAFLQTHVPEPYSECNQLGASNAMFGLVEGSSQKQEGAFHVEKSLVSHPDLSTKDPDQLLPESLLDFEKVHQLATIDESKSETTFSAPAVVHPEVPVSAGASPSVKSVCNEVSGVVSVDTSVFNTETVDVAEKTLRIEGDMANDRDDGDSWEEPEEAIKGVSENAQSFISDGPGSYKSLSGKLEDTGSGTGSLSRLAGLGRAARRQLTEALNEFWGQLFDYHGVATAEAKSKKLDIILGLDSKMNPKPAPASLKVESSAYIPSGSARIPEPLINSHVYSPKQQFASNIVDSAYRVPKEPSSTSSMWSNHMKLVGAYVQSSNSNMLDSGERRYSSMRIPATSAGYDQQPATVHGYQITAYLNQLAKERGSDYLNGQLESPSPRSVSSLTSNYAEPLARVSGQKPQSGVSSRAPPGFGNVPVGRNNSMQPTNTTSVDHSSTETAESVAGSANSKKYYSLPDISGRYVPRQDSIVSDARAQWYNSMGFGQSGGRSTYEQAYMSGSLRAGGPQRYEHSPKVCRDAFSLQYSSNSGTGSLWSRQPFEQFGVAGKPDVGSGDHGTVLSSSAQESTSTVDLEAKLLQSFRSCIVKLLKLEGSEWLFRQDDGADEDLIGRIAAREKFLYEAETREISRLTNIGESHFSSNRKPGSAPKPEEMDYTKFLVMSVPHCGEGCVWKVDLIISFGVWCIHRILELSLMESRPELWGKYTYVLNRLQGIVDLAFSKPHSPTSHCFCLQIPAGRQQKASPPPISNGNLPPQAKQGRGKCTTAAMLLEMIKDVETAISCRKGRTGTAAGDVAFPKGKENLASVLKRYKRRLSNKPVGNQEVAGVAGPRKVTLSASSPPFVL

B1: tomato ethylene receptor protein LeETR1 (receptor, UniProt Q41342 1-754, looked up)
chain: T1 sequence (Q41342 1-754)
modifications: Alexa Fluor 488 succinimidyl-ester label (MST with LeEIN2, FRET assay); Alexa Fluor 488-Maleimide label (MST with NOP-1); non-labeled in the reverse MST titration
notes: ethylene receptor ETR1 of tomato (LeETR1); Membrane protein kept in 0.015% Fos-Choline-16 for MST; also called tomato ETR1; tomato receptor
B2: NOP-1 (LKRYKRRL-NH2) (peptide)
peptide: H-LKRYKRRL-NH2
notes: the motif is fully conserved in tomato EIN2; also called NLS-based peptide; source: synthetic peptide (Molecular Proteomics Laboratory of the BMFZ Düsseldorf, >90% purity)

Tests used:
[1] = Fluorescence of the dyes on their own (FRET control); details: 100 μM peptide; free dyes
Source text: (§1) For this purpose, we made use of a fluorescence resonance energy transfer (FRET)-based in vitro assay, originally established for the respective Arabidopsis signaling proteins. Recombinant ethylene proteins LeETR1 and LeEIN2^462–1316 were labeled with fluorescent Alexa dyes[36] as described in the Methods section. LeETR1 was labeled with Alexa Fluor 488, while LeEIN2^462–1316 was labeled with Alexa Fluor 568. As the emission spectrum of the donor fluorophore partially overlaps with the excitation spectrum of the acceptor fluorophore, the dyes form a FRET pair and energy transfer from the donor to the acceptor fluorophore is possible when both probes get in close proximity. […] Formation of the complex is monitored by FRET from the donor molecule Alexa Fluor 488 to the acceptor molecule Alexa Fluor 568. Processes or molecules that prevent complex formation result in a reduced FRET from the donor to the acceptor, which is detected as reduced acceptor fluorescence at the emission maximum.
(b) Calculation of IC50 value for NOP-1. Data were obtained in the FRET-assay in presence of increasing concentrations of NOP-1 peptide. […] (c) Determination of Kd value of NOP-1 binding to LeETR1 based on MST is illustrated. MST-signal is plotted against the NOP-1 concentration. […] All data (a,b,c) represent the mean +/− standard deviation.

[2] = system: green, immature tomato fruits; assay: Tomato fruit ripening after inhibitor treatment; format: in vivo, tomato (Solanum pimpinellifolium); details: for delay in maturation of tomato fruits: 200 μM, all tested inhibitors and all applications of NOP-1 (injection, incubation, surface application), documented for 20 days, three fruits per application
Source text: To further investigate the potential of NOP-1 for agricultural applications, we tested the effect of the NOP-1 peptide on tomato fruit ripening in comparison to other known inhibitors of ethylene responses. To this end we tested […] (MCP) and aminoethoxyvinylglycine (AVG). MCP is a known inhibitor of ethylene signaling blocking ethylene binding at the receptor proteins, whereas AVG blocks ethylene production in the plant by competitive inhibition of ACC synthases. To monitor inhibition of the fruit ripening process, we treated green, immature tomato fruits with 200 μM NOP-1, MCP or AVG, respectively and documented the fruit ripening process for 20 days. Figure 3 compares the effect of the different inhibitor treatments on tomato fruits to controls lacking the inhibitory treatment that contain either buffer alone or a random sequence control peptide (ROP-1). […] The bioassays underline the high inhibitory potential of NOP-1 on the ripening process compared to the well-known and efficient inhibitors of ethylene responses.
Inhibitor-treatment of tomato fruits
Aminoethoxyvinyl glycine (AVG) was purchased from Sigma-Aldrich, St Louis, MO (purity ~95%). SmartFresh^SM (AgroFresh, Spring House, PA) was used as sugar-based powder formulation of 1-MCP. Concentration of 1-MCP was calculated according to the percentage of active ingredient (0.14%) and release from the SmartFresh^SM powder. For comparison concentration of all inhibitors are expressed in terms of molarity. For treatment of tomato fruits with NOP-1, AVG and MCP, inhibitors were dissolved in the FRET buffer described in the previous section to a final concentration of 200 μM. Green tomato fruits (Solanum pimpinellifolium) from the same estimated developmental stage were harvested from the panicle and water-cleaned. 300 μL of the inhibitor solution was applied onto the tomato surface with a brush and the fruits were air-dried for 30 min. As an alternative application, tomato fruits were plunged into 2 mL of the inhibitor solution and incubated for 30 min in this solution or 200 μL of the peptide-containing solution were carefully injected into the tomato tissue by a hypodermic syringe. Three individual tomato fruits were treated for the different applications of the peptide in order to document the ripening process. After inhibitor-treatment tomato fruits were transferred to a vial closed with aluminum foil and stored in the dark at room temperature. Maturation process was documented every second day for at least 20 days. For measurement of ethylene production, green tomato fruits were treated as described above.

tomato EIN2-ETR1 complex = target: T1, tomato EIN2-ETR1 complex; assay: FRET assay of LeEIN2-LeETR1 complex formation; format: biochemical; details: FRET assay; 100 μM peptide where stated; LeETR1-Alexa Fluor 488 and LeEIN2-Alexa Fluor 568, 3 μM each
Source text: as §1
Quantitative analysis of inhibitory peptides on ETR1-EIN2 complex by FRET
For the FRET assay, recombinant LeETR1 was labeled with Alexa Fluor 488 succinimidyl-ester and LeEIN2^462–1316 was labeled with Alexa Fluor 568 succinimidyl-ester (both Life Technologies) in a buffer containing 50 mM potassium phosphate pH 8.0, 300 mM NaCl and 5% (v/v) glycerol following manufacturer’s protocol (MolecularProbes Protein Labeling Kit). Labeled proteins were transferred in FRET buffer containing 50 mM Tris-HCl pH 8.0, 300 mM NaCl, 0.05% (v/v) Tween 20, 5% (v/v) glycerol and mixed at a final concentration of 3.0 μM each. […] The FRET-based binding assay was carried out in 384-well microplates using an Infinite M200 Pro microplate reader (Tecan) at 455 nm excitation wavelength. Emission spectra were detected between 565 nm to 645 nm. FRET efficiencies were calculated from the maximal emission in the absence and in the presence of the supplied peptides and the half maximal inhibitor concentration IC50 was calculated as previously described.

[3] = target: T2, C-terminal part of tomato EIN2 …; assay: MST; LeEIN2 462-1316 labeled with Alexa Fluor 488 titrated with non-labeled LeETR1 (Supplementary Fig. S3); details: both partners purified
[4] = target: T2, C-terminal part of tomato EIN2 …; assay: MST; 0.4 μM LeETR1-Alexa Fluor 488 titrated with LeEIN2 462-1316 (4.69 nM to 9.6 μM); 50 mM Tris-HCl pH 8.0, 300 mM NaCl, 0.015% Fos-Choline-16; Monolith NT.115, 80% MST power, triplicates; details: both partners purified
[5] = target: B1; assay: MST; 50 nM LeETR1 labeled with Alexa Fluor 488-Maleimide titrated with NOP-1 (3.8 nM to 31 μM); 50 mM Tris-HCl pH 8.0, 300 mM NaCl, 0.015% Fos-Choline-16; 80% MST power; 1:1 model; details: both partners purified
[6] = target: B1; assay: FRET or BRET; in vitro FRET: LeETR1-Alexa Fluor 488 (donor) and LeEIN2 462-1316-Alexa Fluor 568 (acceptor), 3.0 μM each; 50 mM Tris-HCl pH 8.0, 300 mM NaCl, 0.05% Tween 20, 5% glycerol; proteins pre-incubated with peptides; excitation 455 nm, 384-well plates; details: both partners purified

Molecule: EFLYMSVN-NH2 [ROP-1, reference compound]
- effect on fluorescence of the dyes on their own [1]: not affected by the peptides; also recorded: Neither of both peptides affected fluorescence of the free, unlabeled dyes
- effect on tomato fruit ripening (in words) ([2]; compared with buffer or untreated control, inhibitors at 200 μM): no effect on the ripening process; also recorded: A related delay in ripening was not observed
- effect on tomato EIN2-ETR1 complex formation (tomato EIN2-ETR1 complex): no effect on tomato EIN2-ETR1 complex formation was observed

Molecule: NCCO/C=C/[C@H](N)C(=O)O [AVG, aminoethoxyvinylglycine, reference compound]
- delay in maturation of tomato fruits [2]: 10 to 15 days

Molecule: CC1=CC1 [MCP, 1-methylcyclopropane, reference compound]
- delay in maturation of tomato fruits [2]: 10 to 15 days

Molecule: B1
- Kd [3]: 651 nM
- Kd [4]: 619 nM

Molecule: B2
- Kd [5]: 156 nM
- IC50 [6]: 160000 nM
